The source made the active and inactive calls. The rule behind the calls is not given here.
What was measured:
[1] = test system: Anastrepha striata; test: Reduction of fertility in 7 days old adult of Anastrepha striata assessed as reduction of egg hatching at 0.1 mg/g treated with diet measured after 11 days oviposition; type: functional; parameters: scale not given: the % may be the effect or the level left
[2] = test system: Anastrepha ludens; test: Reduction of fertility in 7 days old adult of Anastrepha ludens assessed as reduction of egg hatching at 10 mg/g treated with diet measured after 5 days oviposition; type: functional; parameters: scale not given: the % may be the effect or the level left
[3] = test system: Anastrepha ludens; test: Reduction of fertility in 7 days old adult of Anastrepha ludens assessed as reduction of egg hatching at 5 mg/g treated with diet measured after 11 days oviposition; type: functional; parameters: scale not given: the % may be the effect or the level left
[4] = test system: Anastrepha ludens; test: Reduction of fertility in 7 days old adult of Anastrepha ludens assessed as reduction of egg hatching at 0.1 mg/g treated with diet measured after 3 days oviposition; type: functional; parameters: scale not given: the % may be the effect or the level left
[5] = test system: Anastrepha striata; test: Reduction of fertility in 7 days old adult of Anastrepha striata assessed as reduction of egg hatching at 30 mg/g treated with diet measured after 7 days oviposition; type: functional; parameters: scale not given: the % may be the effect or the level left
[6] = test system: Anastrepha obliqua; test: Reduction of fertility in 7 days old adult of Anastrepha obliqua assessed as reduction of egg hatching at 30 mg/g treated with diet measured after 1 day oviposition; type: functional; parameters: scale not given: the % may be the effect or the level left
[7] = test system: Anastrepha striata; test: Reduction of fertility in 7 days old adult of Anastrepha striata assessed as reduction of egg hatching at 10 mg/g treated with diet measured after 7 days oviposition; type: functional; parameters: scale not given: the % may be the effect or the level left
[8] = test system: Anastrepha ludens; test: Reduction of fertility in 7 days old adult of Anastrepha ludens assessed as reduction of egg hatching at 30 mg/g treated with diet measured after 7 days oviposition; type: functional; parameters: scale not given: the % may be the effect or the level left
[9] = test system: Anastrepha obliqua; test: Reduction of fertility in 7 days old adult of Anastrepha obliqua assessed as reduction of egg hatching at 1 mg/g treated with diet measured after 7 days oviposition; type: functional; parameters: scale not given: the % may be the effect or the level left
[10] = test system: Anastrepha obliqua; test: Reduction of fertility in 7 days old adult of Anastrepha obliqua assessed as reduction of egg hatching at 1 mg/g treated with diet measured after 1 day oviposition; type: functional; parameters: scale not given: the % may be the effect or the level left
[11] = test system: Anastrepha ludens; test: Reduction of fertility in 7 days old adult of Anastrepha ludens assessed as reduction of egg hatching at 5 mg/g treated with diet measured after 3 days oviposition; type: functional; parameters: scale not given: the % may be the effect or the level left
[12] = test system: Anastrepha obliqua; test: Reduction of fertility in 7 days old adult of Anastrepha obliqua assessed as reduction of egg hatching at 10 mg/g treated with diet measured after 1 day oviposition; type: functional; parameters: scale not given: the % may be the effect or the level left
[13] = test system: Anastrepha ludens; test: Reduction of fertility in 7 days old adult of Anastrepha ludens assessed as reduction of egg hatching at 10 mg/g treated with diet measured after 9 days oviposition; type: functional; parameters: scale not given: the % may be the effect or the level left
[14] = test system: Anastrepha ludens; test: Reduction of fertility in 7 days old adult of Anastrepha ludens assessed as reduction of egg hatching at 0.5 mg/g treated with diet measured after 9 days oviposition; type: functional; parameters: scale not given: the % may be the effect or the level left
[15] = test system: Anastrepha striata; test: Reduction of fertility in 7 days old adult of Anastrepha striata assessed as reduction of egg hatching at 5 mg/g treated with diet measured after 5 days oviposition; type: functional; parameters: scale not given: the % may be the effect or the level left
[16] = test system: Anastrepha striata; test: Reduction of fertility in 7 days old adult of Anastrepha striata assessed as reduction of egg hatching at 0.1 mg/g treated with diet measured after 9 days oviposition; type: functional; parameters: scale not given: the % may be the effect or the level left
[17] = test system: Anastrepha ludens; test: Reduction of fertility in 7 days old adult of Anastrepha ludens assessed as reduction of egg hatching at 30 mg/g treated with diet measured after 11 days oviposition; type: functional; parameters: scale not given: the % may be the effect or the level left
[18] = test system: Anastrepha obliqua; test: Reduction of fertility in 7 days old adult of Anastrepha obliqua assessed as reduction of egg hatching at 30 mg/g treated with diet measured after 3 days oviposition; type: functional; parameters: scale not given: the % may be the effect or the level left
[19] = test system: Anastrepha obliqua; test: Reduction of fertility in 7 days old adult of Anastrepha obliqua assessed as reduction of egg hatching at 1 mg/g treated with diet measured after 5 days oviposition; type: functional; parameters: scale not given: the % may be the effect or the level left
[20] = test system: Anastrepha obliqua; test: Reduction of fertility in 7 days old adult of Anastrepha obliqua assessed as reduction of egg hatching at 5 mg/g treated with diet measured after 1 day oviposition; type: functional; parameters: scale not given: the % may be the effect or the level left
[21] = test system: Anastrepha ludens; test: Reduction of fertility in 7 days old adult of Anastrepha ludens assessed as reduction of egg hatching at 30 mg/g treated with diet measured after 1 day oviposition; type: functional; parameters: scale not given: the % may be the effect or the level left
[22] = test system: Anastrepha serpentina; test: Reduction of fertility in 7 days old adult of Anastrepha serpentina assessed as reduction of egg hatching at 0.5 mg/g treated with diet measured after 7 days oviposition; type: functional; parameters: scale not given: the % may be the effect or the level left
[23] = test system: Anastrepha ludens; test: Reduction of fertility in 7 days old adult of Anastrepha ludens assessed as reduction of egg hatching at 5 mg/g treated with diet measured after 5 days oviposition; type: functional; parameters: scale not given: the % may be the effect or the level left
[24] = test system: Anastrepha striata; test: Reduction of fertility in 7 days old adult of Anastrepha striata assessed as reduction of egg hatching at 5 mg/g treated with diet measured after 11 days oviposition; type: functional; parameters: scale not given: the % may be the effect or the level left
[25] = test system: Anastrepha striata; test: Effect on fertility in 7 days old adult male of Anastrepha striata at 30 mg/g treated with diet after 24 hr in presence of untreated adult female of Anastrepha striata; type: functional, organism-based
[26] = test system: Anastrepha striata; test: Reduction of fertility in 7 days old adult of Anastrepha striata assessed as reduction of egg hatching at 5 mg/g treated with diet measured after 9 days oviposition; type: functional; parameters: scale not given: the % may be the effect or the level left
[27] = test system: Anastrepha striata; test: Reduction of fertility in 7 days old adult of Anastrepha striata assessed as reduction of egg hatching at 10 mg/g treated with diet measured after 11 days oviposition; type: functional; parameters: scale not given: the % may be the effect or the level left
[28] = test system: Anastrepha obliqua; test: Effect on fertility in 7 days old adult female of Anastrepha obliqua at 30 mg/g treated with diet after 24 hr in presence of untreated adult male of Anastrepha obliqua; type: functional, organism-based
[29] = test system: Anastrepha striata; test: Effect on fecundity in 7 days old adult of Anastrepha striata at 0.1 to 30 mg/g treated with diet after 24 hr; type: functional, organism-based
[30] = test system: Anastrepha serpentina; test: Reduction of fertility in 7 days old adult of Anastrepha serpentina assessed as reduction of egg hatching at 10 mg/g treated with diet measured after 7 days oviposition; type: functional; parameters: scale not given: the % may be the effect or the level left
[31] = test system: Anastrepha serpentina; test: Reduction of fertility in 7 days old adult of Anastrepha serpentina assessed as reduction of egg hatching at 0.1 mg/g treated with diet measured after 3 days oviposition; type: functional; parameters: scale not given: the % may be the effect or the level left
[32] = test system: Anastrepha striata; test: Reduction of fertility in 7 days old adult of Anastrepha striata assessed as reduction of egg hatching at 10 mg/g treated with diet measured after 1 day oviposition; type: functional; parameters: scale not given: the % may be the effect or the level left
[33] = test system: Anastrepha ludens; test: Reduction of fertility in 7 days old adult of Anastrepha ludens assessed as reduction of egg hatching at 0.1 mg/g treated with diet measured after 5 days oviposition; type: functional; parameters: scale not given: the % may be the effect or the level left
[34] = test system: Anastrepha ludens; test: Reduction of fertility in 7 days old adult of Anastrepha ludens assessed as reduction of egg hatching at 10 mg/g treated with diet measured after 7 days oviposition; type: functional; parameters: scale not given: the % may be the effect or the level left
[35] = test system: Anastrepha striata; test: Reduction of fertility in 7 days old adult of Anastrepha striata assessed as reduction of egg hatching at 5 mg/g treated with diet measured after 3 days oviposition; type: functional; parameters: scale not given: the % may be the effect or the level left
[36] = test system: Anastrepha serpentina; test: Reduction of fertility in 7 days old adult of Anastrepha serpentina assessed as reduction of egg hatching at 0.1 mg/g treated with diet measured after 9 days oviposition; type: functional; parameters: scale not given: the % may be the effect or the level left
[37] = test system: Anastrepha obliqua; test: Reduction of fertility in 7 days old adult of Anastrepha obliqua assessed as reduction of egg hatching at 10 mg/g treated with diet measured after 9 days oviposition; type: functional; parameters: scale not given: the % may be the effect or the level left
[38] = test system: Anastrepha serpentina; test: Reduction of fertility in 7 days old adult of Anastrepha serpentina assessed as reduction of egg hatching at 0.5 mg/g treated with diet measured after 11 days oviposition; type: functional; parameters: scale not given: the % may be the effect or the level left
[39] = test system: Anastrepha obliqua; test: Reduction of fertility in 7 days old adult of Anastrepha obliqua assessed as reduction of egg hatching at 10 mg/g treated with diet measured after 5 days oviposition; type: functional; parameters: scale not given: the % may be the effect or the level left
[40] = test system: Anastrepha serpentina; test: Reduction of fertility in 7 days old adult of Anastrepha serpentina assessed as reduction of egg hatching at 10 mg/g treated with diet measured after 5 days oviposition; type: functional; parameters: scale not given: the % may be the effect or the level left
[41] = test system: Anastrepha obliqua; test: Reduction of fertility in 7 days old adult of Anastrepha obliqua assessed as reduction of egg hatching at 5 mg/g treated with diet measured after 9 days oviposition; type: functional; parameters: scale not given: the % may be the effect or the level left

O=C(NC(=O)c1c(F)cccc1F)Nc1cc(Cl)c(OC(F)(F)C(F)C(F)(F)F)cc1Cl (racemic) [LUFENURON]
Activity [1]: 72.7%
Activity [2]: 2.7%
Activity [3]: 32.7%
Activity [4]: 18.7%
Activity [5]: 0.7%
Activity [6]: 0%
Activity [7]: 0%
Activity [8]: 4%
Activity [9]: 0.7%
Activity [10]: 0%
Activity [11]: 16%
Activity [12]: 0%
Activity [13]: 14.7%
Activity [14]: 16%
Activity [15]: 2.7%
Activity [16]: 70.7%
Activity [17]: 15.3%
Activity [18]: 0%
Activity [19]: 0%
Activity [20]: 1.3%
Activity [21]: 3%
Activity [22]: 86.7%
Activity [23]: 20%
Activity [24]: 6.7%
Activity [25]: inactive
Activity [26]: 8.7%
Activity [27]: 6%
Activity [28]: inactive
Activity [29]: Active
Activity [30]: 65.8%
Activity [31]: 95%
Activity [32]: 2%
Activity [33]: 30.7%
Activity [34]: 13.3%
Activity [35]: 4.7%
Activity [36]: 81.7%
Activity [37]: 0%
Activity [38]: 86%
Activity [39]: 0%
Activity [40]: 54.7%
Activity [41]: 0.7%
